This experiment has as its system L1210 leukemia ip in BDF1 mice, survival T/C. Put plainly: NCI In Vivo Anticancer Drug Screen. Data for tumor model L1210 Leukemia (intraperitoneal) in B6D2F1 (BDF1) mice. As to conditions: endpoint: mean survival time, higher = longer survival. In short, it runs like this: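 Transplantable tumor model; survival measured in treated vs vehicle control mice. Value = treated/control.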

The mark [1] stands for this setting: dose: 100.0 mg/kg/injection, schedule: Q01DX001 (ip), vehicle: carboxymethylcellulose (CMC).
Where [2] appears, read: dose: 200.0 mg/kg/injection, schedule: Q01DX001 (ip), vehicle: carboxymethylcellulose (CMC).
Setting [3] is: dose: 400.0 mg/kg/injection, schedule: Q01DX001 (ip), vehicle: carboxymethylcellulose (CMC).
Where [4] appears, read: dose: 100.0 mg/kg/injection, schedule: Q01DX009 (ip), vehicle: saline with Tween-80.
[5] abbreviates: dose: 200.0 mg/kg/injection, schedule: Q01DX009 (ip), vehicle: saline with Tween-80.
Setting [6] is: dose: 400.0 mg/kg/injection, schedule: Q01DX009 (ip), vehicle: saline with Tween-80.
Setting [7] is: dose: 100.0 mg/kg/injection, schedule: Q04DX003 (ip), vehicle: Klucel (hydroxypropylcellulose) (HPC).
The mark [8] stands for this setting: dose: 200.0 mg/kg/injection, schedule: Q04DX003 (ip), vehicle: Klucel (hydroxypropylcellulose) (HPC).
The mark [9] stands for this setting: dose: 400.0 mg/kg/injection, schedule: Q04DX003 (ip), vehicle: Klucel (hydroxypropylcellulose) (HPC).
Setting [10] is: dose: 100.0 mg/kg/injection, schedule: Q01DX009 (ip), vehicle: Klucel (hydroxypropylcellulose) (HPC).
Where [11] appears, read: dose: 100.0 mg/kg/injection, schedule: Q04DX003 (ip), vehicle: saline.

SMILES strings stand for the structures. Where “and” joins values, the source holds several entries; their conditions need not be identical. Identical values can stand only once. Toxic doses and inconclusive results are not listed.

On to `O=NN(CCCl)C(=O)NCc1ccc(-c2ccc(CNC(=O)N(CCCl)N=O)cc2)cc1`, for which the T/C (dose: 177.0 mg/kg/injection, schedule: Q01DX001 (ip), vehicle: other) is 156 % of control and 188 % of control; the T/C (dose: 266.0 mg/kg/injection, schedule: Q01DX001 (ip), vehicle: other) is 180 % of control; the T/C (dose: 400.0 mg/kg/injection, schedule: Q01DX001 (ip), vehicle: other) is 194 % of control; the T/C (dose: 400.0 mg/kg/injection, schedule: Q01DX009 (ip), vehicle: carboxymethylcellulose (CMC)) was 159 % of control and 274 % of control; the T/C (dose: 600.0 mg/kg/injection, schedule: Q01DX001 (ip), vehicle: other) was 264 % of control; the T/C (dose: 600.0 mg/kg/injection, schedule: Q01DX009 (ip), vehicle: carboxymethylcellulose (CMC)) was 261 % of control.
As for `O=C(O)c1cccc(SSc2cccc(C(=O)O)c2)c1`, the T/C reads like this: under setting [1], 94 % of control; under setting [2], 100 % of control; under setting [3], 102 % of control.
Regarding `Cc1cc(C(C)(C)C)ccc1SC(=O)Nc1cc([N+](=O)[O-])ccc1Cl`, the T/C by setting is: (dose: 100.0 mg/kg/injection, schedule: Q01DX001 (ip), vehicle: gum acacia) 94 % of control and 95 % of control; (dose: 100.0 mg/kg/injection, schedule: Q01DX009 (ip), vehicle: gum acacia) 103 % of control; (dose: 100.0 mg/kg/injection, schedule: Q04DX002 (ip), vehicle: gum acacia) 99 % of control and 105 % of control; (dose: 100.0 mg/kg/injection, schedule: Q04DX003 (ip), vehicle: gum acacia) 97 % of control and 108 % of control; (dose: 200.0 mg/kg/injection, schedule: Q01DX001 (ip), vehicle: gum acacia) 95 % of control and 97 % of control; (dose: 200.0 mg/kg/injection, schedule: Q01DX009 (ip), vehicle: gum acacia) 102 % of control. The T/C is, setting by setting: (dose: 200.0 mg/kg/injection, schedule: Q04DX002 (ip), vehicle: gum acacia) 103 % of control and 115 % of control; (dose: 200.0 mg/kg/injection, schedule: Q04DX003 (ip), vehicle: gum acacia) 96 % of control and 99 % of control; (dose: 400.0 mg/kg/injection, schedule: Q01DX001 (ip), vehicle: gum acacia) 94 % of control and 95 % of control; (dose: 400.0 mg/kg/injection, schedule: Q04DX002 (ip), vehicle: gum acacia) 101 % of control and 105 % of control; (dose: 400.0 mg/kg/injection, schedule: Q04DX003 (ip), vehicle: gum acacia) 101 % of control and 91 % of control.
Turning to `C/C(=C\c1c[nH]c2ccccc12)[N+](=O)[O-]`, the T/C runs as follows: under setting [4], 90 % of control; (dose: 100.0 mg/kg/injection, schedule: Q04DX003 (ip), vehicle: saline with Tween-80) 97 % of control; under setting [5], 100 % of control; (dose: 200.0 mg/kg/injection, schedule: Q04DX003 (ip), vehicle: saline with Tween-80) 97 % of control; under setting [6], 100 % of control; (dose: 400.0 mg/kg/injection, schedule: Q04DX003 (ip), vehicle: saline with Tween-80) 90 % of control.
As for `c1cc2c(c(C3=NCCO3)c1)CCCC2` (tested in a mixture with another compound), the T/C was 96 % of control under setting [4], 88 % of control under setting [5] and 91 % of control under setting [6].
In the case of `CCOC(=O)c1cnc(=O)[nH]c1Nc1ccccc1Cl`, the T/C is 94 % of control under setting [7], 101 % of control under setting [8] and 90 % of control under setting [9].
`CC1(C(Cl)(Cl)Cl)C=CC(O)C=C1` (centres undefined): the T/C by setting is: (dose: 25.0 mg/kg/injection, schedule: Q01DX009 (ip), vehicle: Klucel (hydroxypropylcellulose) (HPC)) 90 % of control; (dose: 25.0 mg/kg/injection, schedule: Q04DX002 (ip), vehicle: Klucel (hydroxypropylcellulose) (HPC)) 87 % of control; (dose: 50.0 mg/kg/injection, schedule: Q01DX009 (ip), vehicle: Klucel (hydroxypropylcellulose) (HPC)) 93 % of control; (dose: 50.0 mg/kg/injection, schedule: Q04DX002 (ip), vehicle: Klucel (hydroxypropylcellulose) (HPC)) 93 % of control; under setting [10], 97 % of control and 90 % of control; (dose: 100.0 mg/kg/injection, schedule: Q04DX002 (ip), vehicle: Klucel (hydroxypropylcellulose) (HPC)) 97 % of control and 89 % of control. In addition, the T/C (dose: 150.0 mg/kg/injection, schedule: Q01DX009 (ip), vehicle: Klucel (hydroxypropylcellulose) (HPC)) is 93 % of control.
As to `NC(C(=O)O)C1SCCS1` (centres undefined), the T/C is 102 % of control under setting [1], 102 % of control under setting [2] and 98 % of control under setting [3].
Turning to `COC(=O)CC1CC(C=O)C1` (centres undefined), the T/C (dose: 100.0 mg/kg/injection, schedule: Q04DX002 (ip), vehicle: saline) was 105 % of control; the T/C (dose: 200.0 mg/kg/injection, schedule: Q04DX002 (ip), vehicle: saline) is 102 % of control; the T/C (dose: 400.0 mg/kg/injection, schedule: Q04DX002 (ip), vehicle: saline) is 105 % of control.
`CC(=O)N1CCC(Cc2ccccc2)CC1`: the T/C (dose: 75.0 mg/kg/injection, schedule: Q01DX009 (ip), vehicle: saline with Tween-80) was 104 % of control.
On to `C=CCN(CC=C)CCN1CCN(CCCN2c3ccccc3Sc3ccc(C(F)(F)F)cc32)CC1`, for which the T/C (dose: 6.25 mg/kg/injection, schedule: Q01DX009 (ip), vehicle: saline) is 98 % of control; the T/C (dose: 6.25 mg/kg/injection, schedule: Q04DX003 (ip), vehicle: saline) is 109 % of control; the T/C (dose: 12.5 mg/kg/injection, schedule: Q01DX009 (ip), vehicle: saline) is 100 % of control; the T/C (dose: 12.5 mg/kg/injection, schedule: Q04DX003 (ip), vehicle: saline) is 91 % of control; the T/C (dose: 25.0 mg/kg/injection, schedule: Q01DX009 (ip), vehicle: saline) was 94 % of control; the T/C (dose: 25.0 mg/kg/injection, schedule: Q04DX003 (ip), vehicle: saline) was 112 % of control. The T/C reads like this: (dose: 50.0 mg/kg/injection, schedule: Q04DX003 (ip), vehicle: saline) 97 % of control; (dose: 56.25 mg/kg/injection, schedule: Q01DX001 (ip), vehicle: saline) 102 % of control; under setting [11], 119 % of control; (dose: 112.5 mg/kg/injection, schedule: Q01DX001 (ip), vehicle: saline) 114 % of control.
As to `CCOP(=S)(S)OCC`, the T/C by setting is: under setting [11], 97 % of control and 98 % of control; (dose: 200.0 mg/kg/injection, schedule: Q04DX003 (ip), vehicle: saline) 95 % of control and 93 % of control; (dose: 400.0 mg/kg/injection, schedule: Q04DX003 (ip), vehicle: saline) 98 % of control.
On to `O=C1c2ccccc2-c2cc(Br)c(NC(=O)C(Cl)Cl)cc21`, for which the T/C was 115 % of control under setting [1], 98 % of control under setting [2] and 98 % of control under setting [3].
As to `c1cc[n+](CC[n+]2ccccc2)cc1`, the T/C is 97 % of control (dose: 100.0 mg/kg/injection, schedule: Q01DX001 (ip), vehicle: saline); 100 % of control under setting [10]; 101 % of control (dose: 100.0 mg/kg/injection, schedule: Q01DX009 (ip), vehicle: saline); 107 % of control under setting [7]; 103 % of control (dose: 200.0 mg/kg/injection, schedule: Q01DX001 (ip), vehicle: saline); 103 % of control (dose: 200.0 mg/kg/injection, schedule: Q01DX009 (ip), vehicle: Klucel (hydroxypropylcellulose) (HPC)). Moreover, the T/C is, setting by setting: (dose: 200.0 mg/kg/injection, schedule: Q01DX009 (ip), vehicle: saline) 93 % of control; under setting [8], 101 % of control; (dose: 400.0 mg/kg/injection, schedule: Q01DX001 (ip), vehicle: saline) 94 % of control; (dose: 400.0 mg/kg/injection, schedule: Q01DX009 (ip), vehicle: Klucel (hydroxypropylcellulose) (HPC)) 91 % of control; (dose: 400.0 mg/kg/injection, schedule: Q01DX009 (ip), vehicle: saline) 90 % of control; under setting [9], 98 % of control.

For the origin of these results see PubChem BioAssay AID248 (DTP/NCI, 2004).
